Experiments:
[1] = system: Mycosphaerella arachidis (Cercospora arachidicola); assay: Mycosphaerella arachidis (Cercospora arachidicola)/liquid culture (early leaf spot); assay type: cell-based; settings: liquid culture, PDB, inhibition of growth determined photometrically 4-5 days after application, read-out: disease control
Pythium ultimum = assay: Pythium ultimum/liquid culture (seedling damping off); assay type: cell-based; settings: Globisporangium ultimum, liquid culture, potato dextrose broth, inhibition of growth determined photometrically 2-3 days after application, read-out: disease control
[2] = system: Mycosphaerella graminicola (Septoria tritici); assay: Mycosphaerella graminicola (Septoria tritici)/liquid culture (Septoria blotch); assay type: cell-based; settings: Zymoseptoria tritici, liquid culture, PDB, inhibition of growth determined photometrically 4-5 days after application, read-out: disease control
[3] = system: Monographella nivalis (Microdochium nivale); assay: Monographella nivalis (Microdochium nivale)/liquid culture (foot rot cereals); assay type: cell-based; settings: liquid culture, PDB, inhibition of growth determined photometrically 4-5 days after application, read-out: disease control

OB1OCc2cc3c(cc21)OC(F)(F)O3 [Compound 1]
melting point: 147 to 149 °C
inhibition of growth at 20 ppm [1]: ≥ 80%
inhibition of growth at 20 ppm (Pythium ultimum): ≥ 80%
inhibition of growth at 20 ppm [2]: ≥ 80%
inhibition of growth at 20 ppm [3]: ≥ 80%

OB1OCc2cc(Cl)c(O)cc21 [Compound 6, 5-chloro-1-hydroxy-3H-2,1-benzoxaborol-6-ol]
melting point: 194 to 195 °C
inhibition of growth at 20 ppm [1]: ≥ 80%
inhibition of growth at 20 ppm (Pythium ultimum): ≥ 80%
inhibition of growth at 20 ppm [2]: ≥ 80%
inhibition of growth at 20 ppm [3]: ≥ 80%

CCOc1c(Cl)cc2c(c1Cl)B(O)OC2 [Compound 95, 5,7-dichloro-6-ethoxy-1-hydroxy-3H-2,1-benzoxaborole]
melting point: 109 to 111 °C
inhibition of growth at 20 ppm [1]: ≥ 80%
inhibition of growth at 20 ppm (Pythium ultimum): ≥ 80%
inhibition of growth at 20 ppm [2]: ≥ 80%
inhibition of growth at 20 ppm [3]: ≥ 80%

OB1OCc2cc(Cl)c(O)c(Cl)c21 [Compound 94, 5,7-dichloro-1-hydroxy-3H-2,1-benzoxaborol-6-ol]
melting point: 174 to 176 °C
inhibition of growth at 20 ppm [1]: ≥ 80%
inhibition of growth at 20 ppm (Pythium ultimum): ≥ 80%
inhibition of growth at 20 ppm [2]: ≥ 80%
inhibition of growth at 20 ppm [3]: ≥ 80%

COc1cc(Cl)cc2c1B(O)OC2 [Compound 104, 5-chloro-1-hydroxy-7-methoxy-3H-2,1-benzoxaborole]
melting point: 146 to 148 °C
inhibition of growth at 20 ppm [1]: ≥ 80%
inhibition of growth at 20 ppm (Pythium ultimum): ≥ 80%
inhibition of growth at 20 ppm [2]: ≥ 80%
inhibition of growth at 20 ppm [3]: ≥ 80%

CCOc1cc2c(cc1C)COB2O [Compound 38, 6-ethoxy-1-hydroxy-5-methyl-3H-2,1-benzoxaborole]
melting point: 97 to 100 °C
inhibition of growth at 20 ppm [1]: ≥ 80%
inhibition of growth at 20 ppm (Pythium ultimum): ≥ 80%
inhibition of growth at 20 ppm [2]: ≥ 80%
inhibition of growth at 20 ppm [3]: ≥ 80%

CCOc1cc2c(cc1Cl)COB2O [Compound 9, 5-chloro-6-ethoxy-1-hydroxy-3H-2,1-benzoxaborole]
melting point: 146 to 148 °C
inhibition of growth at 20 ppm [1]: ≥ 80%
inhibition of growth at 20 ppm (Pythium ultimum): ≥ 80%
inhibition of growth at 20 ppm [2]: ≥ 80%
inhibition of growth at 20 ppm [3]: ≥ 80%

COc1cc2c(cc1Cl)COB2O [Compound 5, 5-chloro-1-hydroxy-6-methoxy-3H-2,1-benzoxaborole]
inhibition of growth at 20 ppm [1]: ≥ 80%
inhibition of growth at 20 ppm (Pythium ultimum): ≥ 80%
inhibition of growth at 20 ppm [2]: ≥ 80%
inhibition of growth at 20 ppm [3]: ≥ 80%
